Assay results from US20220315534A1, “BETA ADRENERGIC AGONIST AND METHODS OF USING THE SAME” (Curasen Therapeutics, Inc., priority 2019, published 2022).

molecular target: T1, β1-adrenergic receptor (B1-AR) (Homo sapiens, UniProt P08588); experiment: cAMP Gs dynamic HTRF assay, cells expressing β1-adrenergic receptor; type: cell-based; conditions: CHO-K1 (HitHunter) cells; read-out: Average pEC50 [Receptor subtype: B1-AR; Cell type: CHO-K1 (HitHunter)] (converted)
T1 construct: expressed in transfected cells
T1 sequence (P08588 whole entry): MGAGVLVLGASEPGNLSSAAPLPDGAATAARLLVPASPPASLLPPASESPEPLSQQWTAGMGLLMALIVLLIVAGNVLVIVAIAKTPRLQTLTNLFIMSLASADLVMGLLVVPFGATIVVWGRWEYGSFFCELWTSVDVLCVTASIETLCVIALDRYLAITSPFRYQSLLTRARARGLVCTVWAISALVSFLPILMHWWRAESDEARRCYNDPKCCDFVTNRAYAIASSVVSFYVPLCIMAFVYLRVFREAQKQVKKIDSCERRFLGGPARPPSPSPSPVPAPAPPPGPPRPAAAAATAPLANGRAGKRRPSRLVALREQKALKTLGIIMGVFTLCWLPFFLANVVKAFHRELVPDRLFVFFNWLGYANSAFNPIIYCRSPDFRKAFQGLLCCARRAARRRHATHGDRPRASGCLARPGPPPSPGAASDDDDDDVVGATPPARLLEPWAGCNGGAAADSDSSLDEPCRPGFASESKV
Experimental: (§1) cAMP homogeneous time-resolved fluorescence (HTRF): experimental methods. Compound efficacy is determined using the cAMP Gs dynamic HTRF assay (Cisbio, catalog #62AM4PEC) largely following the manufacturer's instructions, also detailed below.
(§2) Standard serial dilution curves are 10-point, 5-fold dilutions starting from a highest concentration of 10 μM. […] Assay plates are centrifuged at 500×g for 10 seconds. Compounds and IBMX are prepared at 2× final dose to compensate for addition of cells.
(§3) Cell preparation: 1× stimulation buffer, washing PBS (Dulbecco's phosphate-buffered saline, —Mg —Ca; Caisson Labs, catalog #PBL01), assay PBS (Dulbecco's phosphate-buffered saline, +Mg, +Ca; Caisson Labs, catalog #PBL02) and Versene (0.02% EDTA disodium salt solution in PBS without calcium or magnesium; Caisson Labs, catalog #EDL01) are pre-warmed to 37° C. Cells expressing beta-adrenergic receptor were washed in washing PBS to remove growth medium and then released from the surface by incubating with Versene for 5-10 minutes at 37° C. Cells are harvested using assay PBS, counted manually by hemocytometer or by an automated cell counter, pelleted by centrifugation (200×g, 5 minutes) and resuspended in 37° C. 1× stimulation buffer to a final density of […]. 5 μL of the suspended cell solution (7500 cell total) are added to all wells of the 384 well assay plate, the assay plate was covered with an Axygen® plate seal (Corning PCR-SP) and incubated in a humidified 37° C. environment supplemented with 5% CO2 for 30 minutes.
(§4) HTRF reagent addition, reading and data analysis: After 30 minutes of cell stimulation with test compound, the assay plates are centrifuged at 500×g for 10 seconds, and incubation was stopped with the addition of 5 μL cAMP-D2 acceptor, diluted 1:21 in detection and lysis buffer 2 (Cisbio 62CL2FDF) was added to all cells. Subsequently, 5 μL Anti-cAMP-Eu Donor, diluted 1:21 in detection and lysis buffer 2, was added to cells. Plates were sealed and reactions gently ‘vortexed’ at 900 rpm on a Heidolph Titramax 1000 for at least 30 minutes at room temperature. Plates are centrifuged again at 500×g for 10 seconds, and HTRF was measured using a Tecan Spark plate reader at 50 flashes per well. […] Potency estimates (EC50 and pEC50) are derived from the four-parameter nonlinear regression of the concentration-effect curve and an estimate of relative efficacy is determined by comparing the magnitude of the test compound HTRF signal window (min-max dose) with the signal window of the full agonist control, isoproterenol.

| SMILES | EC50 |
| --- | --- |
| CC(C)(C)NC[C@H](O)c1cccc2[nH]cnc12 [Compound 04-24] | 10 to 100 nM |
| CC(C)(C)NC[C@H](O)c1cccc2[nH]ncc12 [Compound 04-25] | < 10 nM |
| CC(C)(C)NC[C@H](O)c1cccc2cn[nH]c12 [Compound 04-26] | 10 to 100 nM |
| Cn1ncc2c([C@@H](O)CNC(C)(C)C)cccc21 [Compound 04-27] | < 10 nM |
| Cn1ncc2c([C@H](O)CNC(C)(C)C)cccc21 [Compound 04-28] | 100 to 1000 nM |
| Cc1noc2cccc([C@@H](O)CNC(C)(C)C)c12 [Compound 04-29] | 100 to 1000 nM |
| Cc1noc2cccc([C@H](O)CNC(C)(C)C)c12 [Compound 04-30] | > 1000 nM |
| CC(C)(C)NC[C@H](O)c1ccc2ccc(C(F)(F)F)cc2n1 [Compound 04-36] | < 10 nM |
| CC(C)(C)NC[C@H](O)c1ccc2ncccc2c1 [Compound 04-38] | 100 to 1000 nM |
| CC(C)(C)NC[C@H](O)c1ccc2cccc(Cl)c2n1 [Compound 04-39] | < 10 nM |
| CC(C)(C)NC[C@@H](O)c1ccc2cccc(Cl)c2n1 [Compound 04-40] | 10 to 100 nM |
| CC(C)(C)NC[C@H](O)c1ccc2cccc(F)c2n1 [Compound 04-41] | < 10 nM |
| CC(C)(C)NC[C@@H](O)c1ccc2cccc(F)c2n1 [Compound 04-42] | 100 to 1000 nM |
| CC(C)(C)NC[C@H](O)c1ccc2[nH]ncc2c1 [Compound 04-48] | > 1000 nM |
| Cn1ncc2cc([C@@H](O)CNC(C)(C)C)ccc21 [Compound 04-49] | > 1000 nM |
| Cn1ncc2cc([C@H](O)CNC(C)(C)C)ccc21 [Compound 04-50] | 100 to 1000 nM |
| Cc1noc2ccc([C@@H](O)CNC(C)(C)C)cc12 [Compound 04-51] | > 1000 nM |
| Cc1noc2ccc([C@H](O)CNC(C)(C)C)cc12 [Compound 04-52] | 100 to 1000 nM |
| CC(C)(C)NC[C@H](O)c1ccc2[nH]c3ccccc3c2c1 [Compound 04-54] | > 1000 nM |
| COc1ccc(CC(C)(C)NC[C@H](O)c2cccc3[nH]c4ccccc4c23)cc1 [Compound 04-55] | 10 to 100 nM |
| CC(C)NC[C@H](O)c1cccc2[nH]c3ccccc3c12 [Compound 04-56] | < 10 nM |
| CC(C)(C)NC[C@H](O)c1cccc2[nH]c3ccccc3c12 [Compound 04-57] | < 10 nM |
| O[C@@H](CNC1(C(F)(F)F)CC1)c1cccc2cccnc12 [Compound 04-67] | > 1000 nM |
| O[C@H](CNC1(C(F)(F)F)CC1)c1cccc2cccnc12 [Compound 04-68] | > 1000 nM |
| CC(C)(C)NC[C@H](O)c1cccc2c(C(F)(F)F)ccnc12 [Compound 04-69] | 10 to 100 nM |
| CC(C)(C)NC[C@H](O)c1cccc2c(C#N)ccnc12 [Compound 04-78] | 100 to 1000 nM |
| CC(C)(C)NC[C@@H](O)c1c(F)ccc2cccnc12 [Compound 04-89] | > 1000 nM |
| CC(C)(C)NC[C@H](O)c1nc(C(F)(F)F)cc2ccccc12 [Compound 04-91] | > 1000 nM |

molecular target: T2, β2-adrenergic receptor (B2-AR) (Homo sapiens, UniProt P07550); experiment: cAMP Gs dynamic HTRF assay, cells expressing β2-adrenergic receptor; type: cell-based; conditions: CHO-K1 (HitHunter) cells; read-out: Average pEC50 [Receptor subtype: B2-AR; Cell type: CHO-K1 (HitHunter)] (converted)
T2 construct: expressed in transfected cells
T2 sequence (P07550 whole entry): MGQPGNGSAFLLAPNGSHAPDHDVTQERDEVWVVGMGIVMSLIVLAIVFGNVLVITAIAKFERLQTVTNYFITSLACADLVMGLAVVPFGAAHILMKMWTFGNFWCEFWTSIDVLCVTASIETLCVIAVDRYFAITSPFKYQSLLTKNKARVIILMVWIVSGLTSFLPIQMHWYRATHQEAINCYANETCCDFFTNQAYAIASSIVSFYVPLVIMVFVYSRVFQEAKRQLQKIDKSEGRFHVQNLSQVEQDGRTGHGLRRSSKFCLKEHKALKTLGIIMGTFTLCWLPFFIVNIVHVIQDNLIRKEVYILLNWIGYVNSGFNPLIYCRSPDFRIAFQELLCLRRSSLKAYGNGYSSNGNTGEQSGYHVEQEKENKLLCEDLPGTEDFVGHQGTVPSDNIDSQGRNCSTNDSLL
Experimental: as §1, §2, §3, §4

| SMILES | EC50 |
| --- | --- |
| CC(C)(C)NC[C@H](O)c1cccc2[nH]cnc12 [Compound 04-24] | 10 to 100 nM |
| CC(C)(C)NC[C@H](O)c1cccc2[nH]ncc12 [Compound 04-25] | < 10 nM |
| CC(C)(C)NC[C@H](O)c1cccc2cn[nH]c12 [Compound 04-26] | 10 to 100 nM |
| Cn1ncc2c([C@@H](O)CNC(C)(C)C)cccc21 [Compound 04-27] | 10 to 100 nM |
| Cn1ncc2c([C@H](O)CNC(C)(C)C)cccc21 [Compound 04-28] | > 1000 nM |
| Cc1noc2cccc([C@@H](O)CNC(C)(C)C)c12 [Compound 04-29] | > 1000 nM |
| CC(C)(C)NC[C@H](O)c1ccc2ccc(C(F)(F)F)cc2n1 [Compound 04-36] | < 10 nM |
| CC(C)(C)NC[C@H](O)c1ccc2ncccc2c1 [Compound 04-38] | < 10 nM |
| CC(C)(C)NC[C@H](O)c1ccc2cccc(Cl)c2n1 [Compound 04-39] | < 10 nM |
| CC(C)(C)NC[C@@H](O)c1ccc2cccc(Cl)c2n1 [Compound 04-40] | 10 to 100 nM |
| CC(C)(C)NC[C@H](O)c1ccc2cccc(F)c2n1 [Compound 04-41] | < 10 nM |
| CC(C)(C)NC[C@@H](O)c1ccc2cccc(F)c2n1 [Compound 04-42] | 100 to 1000 nM |
| CC(C)(C)NC[C@H](O)c1ccc2[nH]ncc2c1 [Compound 04-48] | > 1000 nM |
| Cn1ncc2cc([C@@H](O)CNC(C)(C)C)ccc21 [Compound 04-49] | > 1000 nM |
| Cn1ncc2cc([C@H](O)CNC(C)(C)C)ccc21 [Compound 04-50] | 10 to 100 nM |
| Cc1noc2ccc([C@@H](O)CNC(C)(C)C)cc12 [Compound 04-51] | > 1000 nM |
| Cc1noc2ccc([C@H](O)CNC(C)(C)C)cc12 [Compound 04-52] | 10 to 100 nM |
| CC(C)(C)NC[C@H](O)c1ccc2[nH]c3ccccc3c2c1 [Compound 04-54] | 100 to 1000 nM |
| COc1ccc(CC(C)(C)NC[C@H](O)c2cccc3[nH]c4ccccc4c23)cc1 [Compound 04-55] | < 10 nM |
| CC(C)NC[C@H](O)c1cccc2[nH]c3ccccc3c12 [Compound 04-56] | < 10 nM |
| CC(C)(C)NC[C@H](O)c1cccc2[nH]c3ccccc3c12 [Compound 04-57] | < 10 nM |
| O[C@@H](CNC1(C(F)(F)F)CC1)c1cccc2cccnc12 [Compound 04-67] | > 1000 nM |
| O[C@H](CNC1(C(F)(F)F)CC1)c1cccc2cccnc12 [Compound 04-68] | > 1000 nM |
| CC(C)(C)NC[C@H](O)c1cccc2c(C(F)(F)F)ccnc12 [Compound 04-69] | 100 to 1000 nM |
| CC(C)(C)NC[C@@H](O)c1cccc2c(C(F)(F)F)ccnc12 [Compound 04-70] | < 10 nM |
| CC(C)(C)NC[C@@H](O)c1cccc2c(C#N)ccnc12 [Compound 04-77] | > 1000 nM |
| CC(C)(C)NC[C@H](O)c1ccc2c(c1)CC(=O)N2 [Compound 04-121] | > 1000 nM |
